Laboratory results from US8912146B2, “Derivatives of APF and methods of use” (University of Maryland, Baltimore, priority 2008, dated 2014).
“Also recorded” adds a separate entry of the source.

Legend:
Format in all cases: cell-based, human
[1] = system: APF activity in normal bladder epithelial cells; experiment: Inhibition of APF antiproliferative activity in as-APF-treated normal bladder epithelial cells (3H-thymidine); conditions: pretreatment, then as-APF (0.25 or 0.025 μM; 25 nM in FIG. 54), normal and/or IC/PBS bladder cells
Description: Explanted cells grown from the biopsies of normal controls were plated on Day 0 at 1.5×10^4 cells/well onto a 96-well cell culture plate (VWR 29442-054), in 150 μL/well MEM containing 10% heat-inactivated FBS, 1% antibiotic/antimycotic solution, and 1% L-glutamine (all from Sigma), serum starved on Day 1, and treated with varying concentrations of D-pipecolic acid diluted in phosphate buffered saline (PBS) for 2 hours at 37° C. in a 5% CO2 atmosphere. […] The cell contents were then harvested and methanol-fixed onto glass fiber filter paper, and the amount of radioactivity incorporated was determined. Significance of the difference in mean values between groups was determined by an analysis of variance.
IC/PBS cells were incubated with varying concentrations of two derivatives shown to inhibit APF activity in normal bladder cells—GalGalNAc-TV(D-pipecolic acid) AAVVVA (SEQ ID NO:14) and GalGalNAc-TV (D-proline)AAVVVA (SEQ ID NO:27). Cell proliferation was determined by ^3H-thymidine incorporation; gene expression by quantitative RT-PCR; specific protein expression by Western blot analysis; tight junction formation by confocal immunofluorescence microscopy; and paracellular permeability by ^14C-mannitol and ^3H-inulin flux between confluent cells on Transwell plates. Significance of the difference in mean values between groups was determined by an analysis of variance for each assay. […]

[2] = system: tight junction proteins in IC/PBS cells; experiment: Immunofluorescence confocal microscopy of tight junction proteins in IC/PBS cells; conditions: IC/PBS cell explants, 9 days
Description: For immunofluorescence, cells were fixed using ethanol/acetone (1:1) for 15 minutes at room temperature, washed 3 times with PBS and incubated with fluorescein isothiocyanate (FITC) labeled mouse monoclonal anti-ZO-1 (5 μg/ml); or unlabeled mouse monoclonal anti-occludin (5 μg/ml) or anti-claudin 4 (3 μg/ml); or unlabeled rabbit polyclonal anti-claudin 1 (3 μg/ml), anti-claudin 8 (8 μg/ml), or anti-claudin 12 (5 μg/ml from Zymed, South San Francisco, Calif.) diluted in PBS for 2 hours at 37 C. Cells incubated with unlabeled mouse monoclonal primary antibodies were then washed 3 times with PBS and further incubated with FITC-labeled secondary goat anti-mouse IgG antibody (Zymed) diluted in PBS, while cells incubated with unlabeled rabbit polyclonal primary antibodies were washed and further incubated for 2 hours at 37 C with goat anti-rabbit IgG (Zymed) diluted in PBS. Following an additional 5 washes with PBS, the cells were examined using an LSM510 confocal laser scanning microscope (Carl Zeiss, Oberkochen, Germany). Negative controls for the method included cells incubated without primary and secondary antibodies as well as cells incubated with secondary antibody alone.

[3] = system: IC/PBS cell monolayers; experiment: Paracellular permeability (14C-mannitol and 3H-inulin flux, Transwell) of IC/PBS cell monolayers; conditions: 16 or 30 days treatment
Description: Flux assays were performed using 12-mm Transwell culture plates (Corning Incorporated, Corning, N.Y.), as previously described (Keay et al., 2000). Cells were plated at 4×10^5 cells/cm^2 on the insert and grown in DMEM-F12 medium containing 10% heat-inactivated FBS, 1% antibiotic solution, 1% L-glutamine, 0.25 units/ml insulin (all from Sigma, St. Louis, Mo.), and 5 ng/ml hEGF (R & D Systems, Minneapolis, Minn.) to establish tight monolayers. On day 2, the medium was changed to MEM (GIBCO/Invitrogen) containing 1% antibiotic/antimycotic solution and 1% L-glutamine (Sigma).
Two different membrane impermeable molecules, [14C]-mannitol (molecular weight: 184 Daltons) and [^3H]-inulin (molecular weight: 5,200 Daltons), served as paracellular tracers. […] Flux assays were performed at 37° C.; basal medium was collected at 0.5-6 hrs after addition of [^14C]-mannitol or [3H]-inulin, and the amount of radioactivity determined using a Beckman LS 5000 scintillation counter. Results were expressed as percentage of total counts for each tracer.
For the permeability assay, the percentage of total counts in the basal medium was determined in four experiments (using different IC/PBS cell donors), and expressed as mean±standard deviation. […]

**Q.** Which results are given for `CC(=O)NC1C(O[C@@H]2OC(CO)[C@H](O)C(O)C2O)[C@@H](O)C(CO)O[C@@H]1OC(C)[C@H](N)C(=O)NC(C(=O)N1CCCC1C(=O)NC(C)C(=O)N[C@@H](C)C(=O)NC(C(=O)N[C@H](C(=O)NC(C(=O)N[C@@H](C)C(=O)O)C(C)C)C(C)C)C(C)C)C(C)C` (stereo in doubt) [Derivative 8, GalGalNAc-TV(D-proline)AAVVVA]?
**A.** inhibition of APF antiproliferative activity [1]: blocked APF antiproliferative activity; inhibition of APF antiproliferative activity ([1]; listed as D-proline APF): inhibit the effect of as-APF on normal bladder epithelial cell proliferation; also recorded: inhibited this activity in nanomolar concentrations in a dose-dependent manner; expression of tight junction proteins by immunofluorescence confocal microscopy [2]: increased; paracellular permeability of IC/PBS cells (14C-mannitol, 3H-inulin) [3]: significantly decrease permeability; paracellular permeability of IC/PBS cells (14C-mannitol, 3H-inulin) ([3]; listed as D-proline APF): normalized; also recorded: significantly decreased paracellular permeability
